Source: ChEMBL document CHEMBL5550158, “Novel 4-triazole phenyl amide (4-TPA) molecules: Potent promoters of α-synuclein fibril disassembly” (Eur J Med Chem, 2024)
The source made the active and inactive calls. The calls are words filed in the database; no cut-off is given here.

What was measured:
[1] = tested on: SH-SY5Y; assay: Cytotoxicity against PFF-induced human SH-SY5Y cells assessed as increase in LDH release incubated for 24 hrs by fluorescence based analysis; format: functional
[2] = tested on: SH-SY5Y; assay: Neuroprotective activity against PFF-induced human SH-SY5Y cells assessed as decrease in autophagosome level measured for 6 hrs by MDC fluorescence assay; format: functional, cell-based
[3] = Half life in ICR mouse at 10 mg/kg, ip measured upto 7 hrs by HPLC analysis; format: ADME, organism-based; conditions: in vivo
[4] = Clearance in ICR mouse plasma at 10 mg/kg, ip measured upto 7 hrs by HPLC analysis; format: ADME, organism-based; conditions: in vivo
[5] = Drug concentration in ICR mouse plasma at 10 mg/kg, iv by LC-MS/MS analysis; format: ADME, organism-based; conditions: in vivo
[6] = tested on: SH-SY5Y; assay: Neuroprotective activity against PFF-induced human SH-SY5Y cells assessed as diffusion of Cy5-PFF and lysosome into cytoplasm measured for 12 hrs by olympus confocal microscopic analysis; format: functional, cell-based
[7] = Tmax in ICR mouse at 10 mg/kg, ip measured upto 7 hrs by HPLC analysis; format: ADME, organism-based; conditions: in vivo
[8] = tested on: SH-SY5Y; assay: Induction of ROS level in PFF-induced human SH-SY5Y cells measured for 12 hrs by DCFH-DA staining based analysis; format: functional, cell-based
[9] = AUC (0 to infinity) in ICR mouse at 10 mg/kg, iv measured upto 7 hrs by HPLC analysis; format: ADME, organism-based; conditions: in vivo
[10] = Drug concentration in ICR mouse brain at 10 mg/kg, iv by LC-MS/MS analysis; format: ADME, organism-based; conditions: in vivo
[11] = AUC (0 to infinity) in ICR mouse at 10 mg/kg, ip measured upto 7 hrs by HPLC analysis; format: ADME, organism-based; conditions: in vivo
[12] = Bioavailability in ICR mouse at 10 mg/kg, ip or 10 mg/kg, iv measured upto 7 hrs by HPLC analysis; format: ADME, organism-based; conditions: in vivo
[13] = Half life in ICR mouse at 10 mg/kg, iv measured upto 7 hrs by HPLC analysis; format: ADME, organism-based; conditions: in vivo
[14] = Clearance in ICR mouse plasma at 10 mg/kg, iv measured upto 7 hrs by HPLC analysis; format: ADME, organism-based
[15] = Ratio of drug concentration in ICR mouse brain to plasma at 10 mg/kg, iv by LC-MS/MS analysis; format: ADME, organism-based; conditions: read-out: BPR

half-life [3]	CL [4]	Cp [5]	Tmax [7]	AUC(0-inf) [9]	Ct [10]	AUC [11]	bioavailability [12]	half-life [13]	clearance [14]	Kp [15]	Compound	Activity [1]	Activity [2]	Activity [6]	Activity [8]
–	–	–	–	–	–	–	–	–	–	–	COc1ccc(-n2cc(-c3ccc(NC(=O)c4cc(Br)cc(OC)c4)cc3)nn2)cc1	~30%	inactive	–	–
69 min	2 mL/min/kg	17180 ng/mL	30 min	41300 ng·h/mL	1.76 µg/mL	1793.287 mg·min/L	72.4%	48 min	4 mL/min/kg	0.1	COc1cc([N+](=O)[O-])ccc1-n1cc(-c2ccc(NC(=O)c3ccc(NC(C)=O)cc3)cc2)nn1	~30%	Active	Active	inactive
